Source: article PMC9855333, “1-(Arylsulfonyl-isoindol-2-yl)piperazines as 5-HT6R Antagonists: Mechanochemical Synthesis, In Vitro Pharmacological Properties and Glioprotective Activity” (Biomolecules, 2022)
Values joined by “and” are separate entries in the source; they are usually repeats but may differ in a detail not shown here. Equal entries are not always repeated.

Key:
[1] = target: T1, 5-HT6R (Homo sapiens, UniProt P50406); assay: Radioligand binding, [3H]-LSD displacement, HEK-293 cells; set-up: expressed in transfected cells; conditions: Table 1; HEK293 cells; three independent binding experiments; read-out: Ki [nM] ± SEM at the 5-HT6R
T1 sequence (P50406 whole entry): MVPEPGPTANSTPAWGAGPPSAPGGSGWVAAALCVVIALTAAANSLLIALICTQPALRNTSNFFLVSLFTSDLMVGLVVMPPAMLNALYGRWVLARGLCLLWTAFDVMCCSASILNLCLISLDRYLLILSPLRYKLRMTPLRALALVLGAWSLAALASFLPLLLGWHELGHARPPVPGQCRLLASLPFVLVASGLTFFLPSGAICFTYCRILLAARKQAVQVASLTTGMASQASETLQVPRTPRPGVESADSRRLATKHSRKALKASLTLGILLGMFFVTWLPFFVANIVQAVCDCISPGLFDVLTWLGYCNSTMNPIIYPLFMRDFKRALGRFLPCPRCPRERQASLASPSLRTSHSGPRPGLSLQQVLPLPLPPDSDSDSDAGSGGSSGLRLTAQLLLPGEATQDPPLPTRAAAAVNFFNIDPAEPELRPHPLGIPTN
Method: All experiments were performed in HEK-293 cells, which stably express the human 5-HT1A, 5-HT6, 5-HT7b, and D2L receptors, or using CHO-K1 cells expressing human serotonin 5-HT2A receptor, following the previously reported procedures. For displacement studies, the following radioligands (PerkinElmer, USA) at given concentrations were used at: 2.5 nM [^3H]-8-OH-DPAT (135.2 Ci/ mmol); 1 nM [^3H]-ketanserin (53.4 Ci/mmol); 2 nM [^3H]-LSD (83.6 Ci/mmol); 0.8 nM [^3H]-5-CT (39.2 Ci/mmol) or 2.5 nM [^3H]-raclopride (76.0 Ci/mmol) for 5-HT1A, 5-HT2A, 5-HT6, 5-HT7b and D2L receptors, respectively. All tested compounds were evaluated in triplicate at 7 concentrations (10^−10–10^−4 M). The inhibition constants (Ki) were calculated from the Cheng–Prusoff equation [25]. A detailed description is reported in the Supporting Information.
All synthesized compounds were evaluated in ^3[H]-LSD competition binding experiments for their affinity for 5-HT6R expressed in HEK-293 cells (Table 1). Embedding the sulfonamide moiety into an unsubstituted isoindoline scaffold was sufficient to provide potent compounds 3a and 3e. […] This effect might result from the favorable localization of the bromine atom at the isoindoline fragment, which enabled compound 3k to adopt an optimal position in the receptor binding pocket via the formation of hydrophobic/steric interactions.
1. Procedure for radioligand binding assay
All experiments were carried out according to the previously published procedures. HEK293 cells stably expressing human 5-HT1A, 5-HT6, 5-HT7b and D2L receptors (prepared with the use of Lipofectamine 2000) or CHO-K1 cells with plasmid containing the sequence coding for the human serotonin 5-HT2A receptor (Perkin Elmer) were maintained at 37 °C in a humidified atmosphere containing 5% CO2 and grown in Dulbecco’s Modified Eagle’s Medium containing 10% dialyzed fetal bovine serum and 500 μg/ml G418 sulfate. For membrane preparation, cells were cultured in 150 cm2 flasks, grown to 90% confluence, washed twice with pre-warmed to 37 °C phosphate buffered saline (PBS) and centrifuged (200 × g) in PBS containing 0.1 mM EDTA and 1 mM dithiothreitol. Prior to membrane preparation, pellets were stored at –80 °C. Cell pellets were thawed and homogenized in 10 volumes of assay buffer using an Ultra Turrax tissue homogenizer and centrifuged twice at 35,000 × g for 15 min at 4 °C, with incubation for 15 min at 37 °C between the centrifugations. The composition of the assay buffers was experimentally selected to achieve the […]
5-HT1AR: 50 mM Tris HCl, 0.1 mM EDTA, 4 mM MgCl2, 10 μM pargyline and 0.1% ascorbate; 5-HT2AR: 50 mM Tris HCl, 0.1 mM EDTA, 4 mM MgCl2 and 0.1% ascorbate;
5-HT6R: 50 mM Tris HCl, 0.5 mM EDTA and 4 mM MgCl2; 5-HT7bR: 50 mM Tris HCl, 4 mM MgCl2, 10 μM pargyline and 0.1% ascorbate; D2LR: 50 mM Tris HCl, 1 mM EDTA, 4 mM MgCl2, 120 mM NaCl, 5 mM KCl, 1.5 mM CaCl2 and 0.1% ascorbate).
All assays were carried out in a total volume of 200 μL in 96-well plates for 1 h at 37 °C, except 5-HT1AR and 5-HT2AR which were incubated at room temperature and 27 °C, respectively.
The process of equilibration was terminated by rapid filtration through Unifilter plates with a 96-well cell harvester and radioactivity retained on the filters was quantified on a Microbeta plate reader (PerkinElmer, USA). For displacement studies the assay samples contained as radioligands (PerkinElmer, USA): 2.5 nM [3H]-8-OH-DPAT (135.2 Ci/ mmol) for 5-HT1AR; 1 nM [3H]-ketanserin (53.4 Ci/mmol) for 5-HT2AR; 2 nM [3H]-LSD (83.6 Ci/mmol) for 5-HT6R; 0.8 nM [3H]-5-CT (39.2 Ci/mmol) for 5-HT7R or 2.5 nM [3H]-raclopride (76.0 Ci/mmol) for D2LR. Non-specific binding was defined in the presence of 10 μM of 5-HT in 5-HT1AR and 5-HT7R binding experiments, 20 μM of mianserin for 5-HT2AR, 10 μM of methiothepine for 5-HT6R or 10 μM of haloperidol for D2LR bidning assays. Each compound was tested in triplicate at 7 concentrations (10-10–10-4 M). The inhibition constants (Ki) were calculated […]

[2] = tested on: C8-D1A astrocytes; assay: Glioprotection against 6-OHDA-induced cytotoxicity, MTT; type: cell-based, mouse; conditions: compound 0.25 µM, 6-OHDA 20 µM, 24 h
Method: (§1) Mouse astrocytes (C8-D1A cell line, ATCC) were cultured in DMEM (Dulbecco’s Modified Eagle’s Medium) supplemented with 10% FBS (FBS; Gibco, Life Technologies, Carlsbad, CA, USA) and 1% antibiotic mixture (Gibco, Life Technologies, Carlsbad, CA, USA) at standard condition until the cells reached 80–90% confluence. Cells were harvested and seeded in 96-well plates at a density of 5000 cells/well. All experiments were conducted with a reduced amount of serum equal to 2.5%. The optimal amount of serum was determined experimentally on the basis of preliminary studies. […] Then 6-OHDA (20 µM) or rotenone (0.5 µM) were added and co-incubated for the next 24 h. The ability of tested compounds to prevent 6-OHDA-induced or rotenone-induced cytotoxicity was assessed by MTT assay following the protocol described above. The experiments were run three times in triplicates.
(§2) Considering the pivotal physiological role of astrocytes in contrasting oxidative stress and promoting tissue repair, supporting their neuroprotective function might be regarded as a tangible strategy to improve the current therapeutic needs in the treatment of neurodegenerative disorders. […] For this purpose, cells were co-incubated with the evaluated compounds (at the non-toxic concentration of 0.25 µM) and 6-OHDA or ROT (20 and 0.5 µM, respectively). After 24 h of incubation, the viability of astrocytes was determined using the MTT assay.

[3] = tested on: C8-D1A astrocytes; assay: Glioprotection against rotenone-induced cytotoxicity, MTT; type: cell-based, mouse; conditions: compound 0.25 µM, rotenone 0.5 µM, 24 h
Method: as §1, §2

[4] = Cytotoxicity, MTT test, HepG2; type: cell-based; conditions: human, HepG2 cells (human hepatocellular carcinoma)
Method: (§3) Hepatotoxicity, neurotoxicity, and glial cytotoxicity were investigated using the following cellular models: human hepatocellular carcinoma (HepG2), human neuroblastoma (SHSY-5Y), and mouse astrocytes (C8-D1A), all from ATCC (American Type Culture Collection, Manassas, VA, USA). Cells were cultured in appropriate culture media recommended by ATCC supplemented with 10% fetal bovine serum (FBS; Gibco, Life Technologies, Carlsbad, CA, USA) and 1% antibiotic mixture (Gibco, Life Technologies, Carlsbad, CA, USA). Cells were cultured at standard conditions (5% CO2, 95% humidity, 37 °C). For cytotoxicity experiments, cells were seeded into 96 well plates at an initial density of 2000 cells/well. After overnight incubation, cells were treated with 3e, 3f, and 3g in a concentration range of 0.78–50 µM for 48 h; then, an MTT assay was performed as described previously. Briefly, following cell exposure, 10 µL of MTT reagent was added to each well. After the next 4 h, the medium was aspirated, and formazan produced in cells appeared as dark crystals in the bottom of the wells. Next, 100 µL DMSO was added to each well. Then, the optical density of the solution (OD) at 570 nm was determined on a plate reader (Spectra Max iD3, Molecular Devices, San Jose, CA, USA). The experiments were run three times in triplicates.

[5] = Cytotoxicity, MTT test, SH-SY5Y; type: cell-based; conditions: human, SH-SY5Y cells (human neuroblastoma)
Method: as §3

[6] = Cytotoxicity, MTT test, C8-D1A; type: cell-based; conditions: mouse, C8-D1A cells (mouse astrocytes)
Method: as §3

[7] = tested on: 5-HT6R-operated Cdk5 signaling; conditions: Figure 1; cited from earlier work
[8] = target: T1, 5-HT6R; set-up: expressed in transfected cells; host or cells: NG108-15 (mouse neuroblastoma x rat glioma hybrid), transient co-transfection with CAMYEL, Lipofectamine 2000; conditions: Figure 1; cited from earlier work

| Ki [1] | Compound | also measured |
| --- | --- | --- |
| 6 ± 1 nM | O=S(=O)(c1ccc(N2CCNCC2)cc1)N1Cc2ccccc2C1 [3a, 2-{[4-(Piperazin-1-yl)phenyl]sulfonyl}isoindoline] | – |
| 7 ± 1 nM | O=S(=O)(c1ccc(N2CCNCC2)cc1)N1Cc2cccc(Cl)c2C1 [3b, 4-Chloro-2-{[4-(piperazin-1-yl)phenyl]sulfonyl}isoindoline] | – |
| 10 ± 2 nM | O=S(=O)(c1ccc(N2CCNCC2)cc1)N1Cc2cccc(Br)c2C1 [3c, 4-Bromo-2-{[4-(piperazin-1-yl)phenyl]sulfonyl}isoindoline] | – |
| 87 ± 12 nM | O=S(=O)(c1ccc(N2CCNCC2)cc1)N1Cc2ccc(Br)cc2C1 [3d, 5-Bromo-2-{[4-(piperazin-1-yl)phenyl]sulfonyl}isoindoline] | – |
| < 5 nM and 4 nM | O=S(=O)(c1cccc(N2CCNCC2)c1)N1Cc2ccc(Br)cc2C1 [3h, 5-Bromo-2-{[3-(piperazin-1-yl)phenyl]sulfonyl}isoindoline] | – |
| > 900 nM and 977 nM | O=S(=O)(c1ccccc1N1CCNCC1)N1Cc2ccccc2C1 [3i, 2-{[2-(Piperazin-1-yl)phenyl]sulfonyl}isoindoline] | – |
| > 900 nM and 918 nM | O=S(=O)(c1ccccc1N1CCNCC1)N1Cc2cccc(Cl)c2C1 [3j, 4-Chloro-2-{[2-(piperazin-1-yl)phenyl]sulfonyl}isoindoline] | – |
| 32 ± 5 nM | O=S(=O)(c1ccccc1N1CCNCC1)N1Cc2cccc(Br)c2C1 [3k, 4-Bromo-2-{[2-(piperazin-1-yl)phenyl]sulfonyl}isoindoline] | – |
| > 900 nM and 1170 nM | O=S(=O)(c1ccccc1N1CCNCC1)N1Cc2ccc(Br)cc2C1 [3l, 5-Bromo-2-{[2-(piperazin-1-yl)phenyl]sulfonyl}isoindoline] | – |
| – | O=S(=O)(c1cccc(Cl)c1)n1ccc2c(N[C@H]3CCNC3)nc3ccccc3c21 [CPPQ, (S)-1-[(3-chlorophenyl)sulfonyl]-4-(pyrrolidine-3-yl-amino)-1H-pyrrolo[3,2-c]quinoline] | effect on 6-OHDA-induced cytotoxicity [2]: decreased the cytotoxicity; effect on ROT-induced cytotoxicity [3]: decreased the cytotoxicity |
| – | COc1cccc2c1C(=O)c1c(O)c3c(c(O)c1C2=O)C[C@@](O)(C(=O)CO)C[C@@H]3O[C@H]1C[C@H](N)[C@H](O)[C@H](C)O1 [Doxorubicin, reference compound] | IC50 at 48 h [4]: 10.8 µM; IC50 at 48 h [5]: 4.4 µM; IC50 at 48 h [6]: 12.3 µM |
| – | O=C(N[C@@H]1CCNC1)c1ccn(S(=O)(=O)c2cccc(Cl)c2)c1-c1ccc(F)cc1 [I] | Functional profile at Cdk5 [7]: Inverse agonist; Functional profile at Gs [8]: Inverse agonist |
| – | NCCc1cn(S(=O)(=O)c2c(Cl)nc3sccn23)c2ccccc12 [WAY-181187] | effect on 6-OHDA-induced cytotoxicity [2]: slightly but not significantly enhanced the gliotoxic effects; effect on ROT-induced cytotoxicity [3]: slightly but not significantly enhanced the gliotoxic effects |
